Where a SMILES comes first, the peptide text is derived from it. [ ]: non-standard residue; d: D form. pGlu = O=C1CC[C@@H](C(=O)O)N1
Experiments:
TRH-DE = target: T1, TRH-DE (Sus scrofa, UniProt A0A287AP33); experiment: HPLC assay of peptide hydrolysis by TRH-DE (Glp production); assay type: biochemical, porcine; conditions: 1 mM peptide incubated with TRH-DE 18 h at 37° C., HPLC
T1 construct: The inventor purified TRH-DE from porcine brain according to purification procedures previously published by Dr. K. Bauer; from tissue; host or cells: porcine brain (TRH-DE); bovine kidney (DPP-IV, gift from Dr. C. H. Williams)
T1 sequence (A0A287AP33 1-1066): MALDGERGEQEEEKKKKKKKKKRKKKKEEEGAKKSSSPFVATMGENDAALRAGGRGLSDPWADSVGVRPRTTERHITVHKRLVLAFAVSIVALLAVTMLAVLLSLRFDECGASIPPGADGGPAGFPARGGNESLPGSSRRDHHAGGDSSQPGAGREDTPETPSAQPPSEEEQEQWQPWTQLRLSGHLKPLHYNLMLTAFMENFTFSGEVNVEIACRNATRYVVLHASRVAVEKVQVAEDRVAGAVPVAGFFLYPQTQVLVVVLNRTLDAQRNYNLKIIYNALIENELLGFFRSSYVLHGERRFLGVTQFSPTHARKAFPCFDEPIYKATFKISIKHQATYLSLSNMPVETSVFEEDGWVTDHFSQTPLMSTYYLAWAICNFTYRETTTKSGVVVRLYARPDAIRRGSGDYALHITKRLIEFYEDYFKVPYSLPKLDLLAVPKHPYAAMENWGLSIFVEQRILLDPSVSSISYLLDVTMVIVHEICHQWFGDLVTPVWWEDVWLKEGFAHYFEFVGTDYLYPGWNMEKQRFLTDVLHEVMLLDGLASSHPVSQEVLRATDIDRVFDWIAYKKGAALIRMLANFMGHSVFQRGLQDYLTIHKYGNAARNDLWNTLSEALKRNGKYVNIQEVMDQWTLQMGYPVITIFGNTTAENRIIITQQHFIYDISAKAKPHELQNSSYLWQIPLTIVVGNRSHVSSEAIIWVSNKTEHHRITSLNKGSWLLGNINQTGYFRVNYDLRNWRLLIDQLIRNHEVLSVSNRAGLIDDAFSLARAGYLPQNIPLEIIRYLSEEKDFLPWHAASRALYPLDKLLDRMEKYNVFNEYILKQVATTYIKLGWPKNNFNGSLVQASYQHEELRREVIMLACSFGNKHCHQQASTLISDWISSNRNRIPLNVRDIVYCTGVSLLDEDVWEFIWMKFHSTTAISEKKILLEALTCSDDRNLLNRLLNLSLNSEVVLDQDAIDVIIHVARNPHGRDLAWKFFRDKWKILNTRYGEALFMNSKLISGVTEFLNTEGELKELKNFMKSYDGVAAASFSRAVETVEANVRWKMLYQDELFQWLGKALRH
How it was run: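 Porcine brain TRH-DE incubated with 1 mM peptide in 20 mM potassium phosphate, pH 7.5, 37 °C: screen with 0.8 μg enzyme for 18 h; rate microassays with 0.8-3.2 μg enzyme for 5 min to 18 h, in triplicate. Reactions stopped with TFA; Glp quantified by C-18 reverse-phase HPLC, UV 206 nm.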

[1] = target: TRH receptors in rat cortical membranes; experiment: radioligand binding to ^3H-3MeHis-TRH-labelled receptors in rat cortex; conditions: competition with 6-8 nM ^3H-3MeHis-TRH, Cheng-Prusoff
Protocol: Evaluation of the ability of TRH, Glp-Asn-ProNH2, and Glp-Asn-ProAMC to bind to ^3H-3MeHis-TRH-labelled receptors in rat cortex: Radioligand binding assays were conducted to investigate the possibility that the two TRH-DE inhibitors might exert their effects by acting independently at TRH receptors in the brain.
Cortex tissue from male Sprague-Dawley rats (250 g) was dissected out, weighed and homogenised in 30 volumes of ice-cold sodium phosphate buffer (0.02 M, pH 7.5). The homogenates were centrifuged at 30,000 g at 4° C. for 30 min. The supernatant was discarded and the pellet was resuspended at 100 mg wet wt/ml in buffer containing 177 μM bacitracin. […] Non-specific binding was defined in the presence of 10 μM TRH.
The statistical significance of differences between behavioural effects of treatments was determined using the Student's t-test or ANOVA, followed by a post-ANOVA test, as indicated. Radioligand binding data were analysed using non-linear curve fitting software (Prism, Graph Pad Software Inc.). IC50 values calculated from competition experiments were converted to Ki values using the Cheng-Prusoff (41) equation Ki=IC50/(1+L/Kd), where L=ligand concentration and Kd=the apparent dissociation constant for [^3H]-[3-MeHis]TRH.

NC(=O)C[C@H](NC(=O)[C@@H]1CCC(=O)N1)C(=O)N1CCC[C@H]1C(N)=O [Glp-Asn-ProNH2, pyroglutamyl-asparaginyl-prolineamide] ([pGlu]-Asn-Pro-NH2)
hydrolysis by TRH-DE (release of Glp) (TRH-DE): No detectable Glp
pKi [1]: 5.15±0.24

— US7378397B2 (The Provost, Fellows and Scholars of the College of the …, priority 2000, dated 2008)
